Five compounds from ChEMBL document CHEMBL1201862, “PubChem BioAssay data set” (2004) can be followed below.

Broadly, the AC50 is the concentration at which the activity in the assay is half-maximal. As a reminder, the EC50 is the concentration giving half of the maximal effect. One may read the Ki as the equilibrium dissociation constant of an inhibitor or competing ligand from its target. What is called IC50 is the midpoint of a concentration-inhibition curve.

For test [1], the target named is T1, CAAX prenyl protease 2 (Saccharomyces cerevisiae S288c, UniProt Q03530).
T1 sequence (Q03530 whole entry): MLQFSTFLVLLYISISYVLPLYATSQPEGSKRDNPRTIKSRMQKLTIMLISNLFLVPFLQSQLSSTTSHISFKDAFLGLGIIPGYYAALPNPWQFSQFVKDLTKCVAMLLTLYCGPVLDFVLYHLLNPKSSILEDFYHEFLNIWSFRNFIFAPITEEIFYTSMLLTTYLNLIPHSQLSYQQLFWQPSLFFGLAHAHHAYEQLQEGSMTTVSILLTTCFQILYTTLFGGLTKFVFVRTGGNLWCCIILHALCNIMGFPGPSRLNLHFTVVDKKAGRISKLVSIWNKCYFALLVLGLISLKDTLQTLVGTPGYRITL
It is filed as biochemical.

A short description of test [2]: NIH-3T3 fibroblast cytotoxicity, dose response, cytotoxicity control, cell-based, fluorescence, Alamar Blue, secondary assay (AID 2327).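 Also: NIH-3T3 mouse fibroblasts cultured with fluconazole at 8 µg/mL.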 It is filed as functional. (In general: Resazurin is reduced to fluorescent resorufin, in cell work by metabolically active cells.)
For test [3], the target named is Mitogen-activated protein kinase 14 (Homo sapiens, UniProt Q16539). It is filed as functional.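 Also: part of a kinome-wide panel, MAPK14 entry.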
Chain of Mitogen-activated protein kinase 14 (Q16539 whole entry): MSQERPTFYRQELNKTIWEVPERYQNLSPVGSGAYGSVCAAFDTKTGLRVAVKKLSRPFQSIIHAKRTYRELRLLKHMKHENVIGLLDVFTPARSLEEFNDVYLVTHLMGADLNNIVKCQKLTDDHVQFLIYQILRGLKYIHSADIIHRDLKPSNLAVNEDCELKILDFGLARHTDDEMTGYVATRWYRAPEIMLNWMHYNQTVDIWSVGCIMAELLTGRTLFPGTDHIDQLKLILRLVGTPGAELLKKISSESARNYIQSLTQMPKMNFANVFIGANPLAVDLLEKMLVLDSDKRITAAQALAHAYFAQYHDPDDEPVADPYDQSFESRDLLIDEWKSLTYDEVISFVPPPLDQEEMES
For test [4], the target named is Leucine-rich repeat serine/threonine-protein kinase 2 (Homo sapiens, UniProt Q5S007). It is filed as functional.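 Also: value from a broad kinome-wide panel profiling study in which LRRK2 was one of the kinases tested.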
The target of test [5] is Leukocyte tyrosine kinase receptor (Homo sapiens, UniProt P29376). The experiment in a line: Navigating the Kinome. Panel member name: LTK. It counts as functional.
Test [6] concerns the target Inhibitor of nuclear factor kappa-B kinase subunit alpha (Homo sapiens, UniProt O15111). It counts as functional.
Test [7] deals with Tyrosine-protein kinase Lyn (Homo sapiens, UniProt P07948). It is filed as functional.
Test [8] deals with Homeodomain-interacting protein kinase 4 (Homo sapiens, UniProt Q8NE63). It is filed as functional.
Test [9] deals with Serine/threonine-protein kinase PLK3 (Homo sapiens, UniProt Q9H4B4). It counts as functional.
Test [10] deals with Mitogen-activated protein kinase 13 (Homo sapiens, UniProt O15264). It is filed as functional.
Test [11] has as its target Tyrosine-protein kinase Fer (Homo sapiens, UniProt P16591). It counts as functional.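 Also: FER tested as one member of a kinome panel.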
Test [12] addresses Vascular endothelial growth factor receptor 3 (Homo sapiens, UniProt P35916). It counts as functional.
Test [13] concerns the target Testis-specific serine/threonine-protein kinase 2 (Homo sapiens, UniProt Q96PF2). It is filed as functional.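 Also: part of the Navigating the Kinome panel, target entry STK22B.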
In test [14] the target is Serine/threonine-protein kinase 3 (Homo sapiens, UniProt Q13188). It is filed as functional.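 Also: measured as one member of a kinome-wide kinase panel.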
For test [15], the target named is Tyrosine-protein kinase SYK (Homo sapiens, UniProt P43405). It counts as functional.
The target in test [16] is Tyrosine-protein kinase ABL1 (Homo sapiens, UniProt P00519). It counts as functional.
In test [17] the target is Serine/threonine-protein kinase D2 (Homo sapiens, UniProt Q9BZL6). It is filed as functional.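 Also: measured against PRKD2 as one member of a kinome-wide kinase profiling panel.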
Test [18] has as its target Receptor tyrosine-protein kinase erbB-4 (Homo sapiens, UniProt Q15303). It counts as functional.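 Also: ERBB4 member of a kinome-wide kinase profiling panel.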
The target in test [19] is Serine/threonine-protein kinase Chk1 (Homo sapiens, UniProt O14757). It is filed as functional.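 Also: measured as one member of a kinome-wide kinase profiling panel.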
Chain of Serine/threonine-protein kinase Chk1 (O14757 whole entry): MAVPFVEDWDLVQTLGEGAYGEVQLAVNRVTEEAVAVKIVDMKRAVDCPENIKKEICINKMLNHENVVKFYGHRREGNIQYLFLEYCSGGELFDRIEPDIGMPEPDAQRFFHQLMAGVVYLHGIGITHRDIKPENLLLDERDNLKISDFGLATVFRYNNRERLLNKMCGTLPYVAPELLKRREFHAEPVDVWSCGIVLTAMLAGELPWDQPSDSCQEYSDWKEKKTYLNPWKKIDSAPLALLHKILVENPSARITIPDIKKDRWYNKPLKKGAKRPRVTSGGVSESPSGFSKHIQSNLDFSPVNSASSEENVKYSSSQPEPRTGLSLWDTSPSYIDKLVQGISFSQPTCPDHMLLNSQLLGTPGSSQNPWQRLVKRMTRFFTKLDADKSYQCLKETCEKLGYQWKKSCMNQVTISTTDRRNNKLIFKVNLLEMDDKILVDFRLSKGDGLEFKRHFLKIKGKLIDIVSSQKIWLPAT
The target in test [20] is RAC-gamma serine/threonine-protein kinase (Homo sapiens, UniProt Q9Y243). It counts as functional.
In test [21] the target is Serine/threonine-protein kinase Chk2 (Homo sapiens, UniProt O96017). It counts as functional.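 Also: CHEK2 entry within a kinome-wide screening panel.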
The target of test [22] is Receptor tyrosine-protein kinase erbB-2 (Homo sapiens, UniProt P04626). The experiment in a line: Navigating the Kinome. Panel member name: ERBB2. It counts as functional.
The target in test [23] is Tyrosine-protein kinase FRK (Homo sapiens, UniProt P42685). It counts as functional.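 Also: FRK tested as one member of a kinome panel.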
Test [24] has as its target Dual specificity tyrosine-phosphorylation-regulated kinase 3 (Homo sapiens, UniProt O43781). It is filed as functional.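 Also: measured as one member of a broad kinase panel.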
The target in test [25] is Casein kinase II subunit alpha (Homo sapiens, UniProt P68400). It is filed as functional.
For test [26], the target named is Misshapen-like kinase 1 (Homo sapiens, UniProt Q8N4C8). It is filed as functional.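 Also: kinome panel screen with MINK as the panel member.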
Test [27] concerns the target Serine/threonine-protein kinase pim-3 (Homo sapiens, UniProt Q86V86). It counts as functional.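 Also: value obtained as one member of a broad kinase panel profiling effort.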
Test [28] deals with Serine/threonine-protein kinase PLK1 (Homo sapiens, UniProt P53350). It is filed as functional.
Test [29] addresses Proto-oncogene tyrosine-protein kinase ROS (Homo sapiens, UniProt P08922). It is filed as functional.
In test [30] the target is Homeodomain-interacting protein kinase 2 (Homo sapiens, UniProt Q9H2X6). It counts as functional.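 Also: measured within a kinome-wide kinase profiling panel, HIPK2 being one panel member.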
The target of test [31] is Interleukin-1 receptor-associated kinase 1 (Homo sapiens, UniProt P51617). It is filed as functional.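 Also: IRAK1 tested as one member of a kinome panel.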
Chain of Interleukin-1 receptor-associated kinase 1 (P51617 whole entry): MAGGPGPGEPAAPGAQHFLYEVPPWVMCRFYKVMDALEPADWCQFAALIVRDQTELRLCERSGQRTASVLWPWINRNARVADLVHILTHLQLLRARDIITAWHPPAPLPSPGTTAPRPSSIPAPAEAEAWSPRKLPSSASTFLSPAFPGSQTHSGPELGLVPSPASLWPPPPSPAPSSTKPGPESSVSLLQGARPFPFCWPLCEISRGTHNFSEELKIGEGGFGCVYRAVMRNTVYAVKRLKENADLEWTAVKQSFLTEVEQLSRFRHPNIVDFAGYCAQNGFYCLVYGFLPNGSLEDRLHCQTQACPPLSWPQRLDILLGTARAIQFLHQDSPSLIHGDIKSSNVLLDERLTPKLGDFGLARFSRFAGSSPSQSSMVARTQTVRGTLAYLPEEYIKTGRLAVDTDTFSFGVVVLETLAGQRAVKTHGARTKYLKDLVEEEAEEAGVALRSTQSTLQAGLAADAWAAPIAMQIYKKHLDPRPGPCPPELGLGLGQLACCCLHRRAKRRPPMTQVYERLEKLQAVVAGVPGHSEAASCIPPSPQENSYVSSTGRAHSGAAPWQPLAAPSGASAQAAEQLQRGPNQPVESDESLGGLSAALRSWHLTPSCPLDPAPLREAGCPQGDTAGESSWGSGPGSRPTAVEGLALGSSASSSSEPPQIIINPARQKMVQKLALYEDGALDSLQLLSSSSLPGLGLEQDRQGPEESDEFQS
The nature of test [32]: Luminescence Cell-Based Dose Response HTS to Identify Activators of Luciferase Translation or Activity in H4 […] Cells. [Related pubchem assays: 1829 (Project Summary), 1814 (Primary HTS)]. It counts as functional.
Test [33] relates to H4. The test can be described thus: Luminescence Cell-Based Dose Response HTS to Identify Activators of 5'UTR Stem-Loop Driven Prion Protein mRNA Translation in H4 Neuroglioblastoma Cells. [Related pubchem assays: 1829 (Project Summary), 1814 (Primary HTS)]. It counts as functional. To be noted: Homo sapiens.
A short description of test [34]: cytotoxicity in HEK-293T cells, dose response, cytotoxicity control for TCR NF-kB inhibitor project, luminescence, T-cell screen hits (AID 489026).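 Also: cells exposed to compound about 14 hours before the viability readout.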 It counts as functional, cell-based.
For test [35], the target named is T2, Mannose-6-phosphate isomerase (Homo sapiens, UniProt P34949).
T2 sequence (P34949 whole entry): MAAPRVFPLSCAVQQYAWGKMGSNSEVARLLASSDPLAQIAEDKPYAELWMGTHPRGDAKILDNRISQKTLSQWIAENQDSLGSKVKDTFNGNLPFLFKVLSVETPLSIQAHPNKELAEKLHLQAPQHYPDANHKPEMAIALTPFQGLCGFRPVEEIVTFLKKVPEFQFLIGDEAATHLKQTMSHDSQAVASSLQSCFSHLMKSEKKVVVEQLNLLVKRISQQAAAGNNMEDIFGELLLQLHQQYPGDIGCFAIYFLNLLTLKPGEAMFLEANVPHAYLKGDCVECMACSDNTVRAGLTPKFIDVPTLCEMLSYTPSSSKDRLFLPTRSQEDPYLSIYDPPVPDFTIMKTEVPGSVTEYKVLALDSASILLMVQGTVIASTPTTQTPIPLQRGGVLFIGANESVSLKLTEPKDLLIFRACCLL
The experiment in a line: human PMI inhibitors, high substrate, primary screen, biochemical, fluorescence intensity, high mannose 6-phosphate (AID 1220).

Calls of active or inactive are those of the source.

Chain of Proto-oncogene tyrosine-protein kinase ROS (P08922 whole entry): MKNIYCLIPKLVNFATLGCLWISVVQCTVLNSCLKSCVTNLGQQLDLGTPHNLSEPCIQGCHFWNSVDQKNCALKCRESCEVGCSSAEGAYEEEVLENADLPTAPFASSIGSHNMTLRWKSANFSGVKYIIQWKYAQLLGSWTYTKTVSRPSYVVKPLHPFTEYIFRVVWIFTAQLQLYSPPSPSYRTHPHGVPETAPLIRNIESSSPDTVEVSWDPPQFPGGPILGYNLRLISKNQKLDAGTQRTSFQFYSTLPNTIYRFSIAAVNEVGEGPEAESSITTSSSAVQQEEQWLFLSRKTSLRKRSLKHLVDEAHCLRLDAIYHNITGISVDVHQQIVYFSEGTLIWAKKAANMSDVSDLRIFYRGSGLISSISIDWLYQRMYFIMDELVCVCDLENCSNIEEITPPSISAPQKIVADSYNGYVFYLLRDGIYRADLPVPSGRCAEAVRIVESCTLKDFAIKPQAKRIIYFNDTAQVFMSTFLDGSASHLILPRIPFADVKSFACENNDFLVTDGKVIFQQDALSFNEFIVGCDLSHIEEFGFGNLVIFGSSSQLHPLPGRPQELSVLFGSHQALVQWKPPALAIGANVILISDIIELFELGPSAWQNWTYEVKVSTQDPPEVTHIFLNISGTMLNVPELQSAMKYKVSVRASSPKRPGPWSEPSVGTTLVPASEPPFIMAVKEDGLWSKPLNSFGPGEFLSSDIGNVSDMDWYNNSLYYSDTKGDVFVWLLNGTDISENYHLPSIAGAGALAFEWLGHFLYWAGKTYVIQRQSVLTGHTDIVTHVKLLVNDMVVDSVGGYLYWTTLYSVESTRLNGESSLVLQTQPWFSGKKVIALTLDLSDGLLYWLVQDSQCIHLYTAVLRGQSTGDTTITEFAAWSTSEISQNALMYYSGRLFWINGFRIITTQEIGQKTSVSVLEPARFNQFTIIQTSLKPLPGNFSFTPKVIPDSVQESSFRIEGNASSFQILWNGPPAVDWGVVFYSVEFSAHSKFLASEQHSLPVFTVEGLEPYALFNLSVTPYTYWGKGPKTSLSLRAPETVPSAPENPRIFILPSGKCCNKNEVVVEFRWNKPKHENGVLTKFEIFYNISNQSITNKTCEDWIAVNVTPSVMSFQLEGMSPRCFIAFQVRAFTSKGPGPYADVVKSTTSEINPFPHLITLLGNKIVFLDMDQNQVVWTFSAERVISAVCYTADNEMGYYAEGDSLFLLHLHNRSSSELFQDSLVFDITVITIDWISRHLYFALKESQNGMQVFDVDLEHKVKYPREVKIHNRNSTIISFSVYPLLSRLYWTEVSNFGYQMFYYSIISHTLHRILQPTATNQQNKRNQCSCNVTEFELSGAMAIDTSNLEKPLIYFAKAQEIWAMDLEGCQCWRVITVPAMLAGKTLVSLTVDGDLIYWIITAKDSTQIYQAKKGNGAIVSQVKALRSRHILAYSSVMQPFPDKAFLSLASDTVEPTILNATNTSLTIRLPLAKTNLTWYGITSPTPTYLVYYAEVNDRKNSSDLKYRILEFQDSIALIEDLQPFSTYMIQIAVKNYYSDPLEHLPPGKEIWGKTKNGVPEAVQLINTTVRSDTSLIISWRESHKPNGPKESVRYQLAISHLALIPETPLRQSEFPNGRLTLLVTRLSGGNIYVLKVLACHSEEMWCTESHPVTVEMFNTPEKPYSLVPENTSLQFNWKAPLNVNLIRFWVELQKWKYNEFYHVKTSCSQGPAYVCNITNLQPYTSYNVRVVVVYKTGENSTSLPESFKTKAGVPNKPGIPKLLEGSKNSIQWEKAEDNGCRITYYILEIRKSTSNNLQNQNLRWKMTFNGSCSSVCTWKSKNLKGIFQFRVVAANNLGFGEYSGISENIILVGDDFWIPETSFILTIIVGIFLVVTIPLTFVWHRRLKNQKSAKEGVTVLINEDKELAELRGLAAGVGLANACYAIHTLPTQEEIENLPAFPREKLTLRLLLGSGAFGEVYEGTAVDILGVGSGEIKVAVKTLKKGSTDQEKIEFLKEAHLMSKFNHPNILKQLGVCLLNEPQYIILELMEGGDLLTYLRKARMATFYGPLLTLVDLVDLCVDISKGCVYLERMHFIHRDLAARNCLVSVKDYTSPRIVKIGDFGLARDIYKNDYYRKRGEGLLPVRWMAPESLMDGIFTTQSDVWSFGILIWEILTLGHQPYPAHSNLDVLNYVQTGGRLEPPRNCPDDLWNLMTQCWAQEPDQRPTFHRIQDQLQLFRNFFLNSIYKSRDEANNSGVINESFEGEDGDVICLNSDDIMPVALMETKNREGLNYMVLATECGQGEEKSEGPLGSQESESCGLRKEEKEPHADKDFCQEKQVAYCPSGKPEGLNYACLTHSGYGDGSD
Chain of Testis-specific serine/threonine-protein kinase 2 (Q96PF2 whole entry): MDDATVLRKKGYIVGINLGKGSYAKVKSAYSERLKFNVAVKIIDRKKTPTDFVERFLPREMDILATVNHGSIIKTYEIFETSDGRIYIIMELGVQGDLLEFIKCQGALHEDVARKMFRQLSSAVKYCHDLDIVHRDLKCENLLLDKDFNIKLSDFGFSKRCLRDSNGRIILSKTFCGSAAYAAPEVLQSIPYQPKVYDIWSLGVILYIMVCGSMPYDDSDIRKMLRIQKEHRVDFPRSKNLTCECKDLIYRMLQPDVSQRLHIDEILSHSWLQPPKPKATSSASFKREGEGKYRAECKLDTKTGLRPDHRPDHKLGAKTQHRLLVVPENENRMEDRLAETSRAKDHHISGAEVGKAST
Chain of Inhibitor of nuclear factor kappa-B kinase subunit alpha (O15111 whole entry): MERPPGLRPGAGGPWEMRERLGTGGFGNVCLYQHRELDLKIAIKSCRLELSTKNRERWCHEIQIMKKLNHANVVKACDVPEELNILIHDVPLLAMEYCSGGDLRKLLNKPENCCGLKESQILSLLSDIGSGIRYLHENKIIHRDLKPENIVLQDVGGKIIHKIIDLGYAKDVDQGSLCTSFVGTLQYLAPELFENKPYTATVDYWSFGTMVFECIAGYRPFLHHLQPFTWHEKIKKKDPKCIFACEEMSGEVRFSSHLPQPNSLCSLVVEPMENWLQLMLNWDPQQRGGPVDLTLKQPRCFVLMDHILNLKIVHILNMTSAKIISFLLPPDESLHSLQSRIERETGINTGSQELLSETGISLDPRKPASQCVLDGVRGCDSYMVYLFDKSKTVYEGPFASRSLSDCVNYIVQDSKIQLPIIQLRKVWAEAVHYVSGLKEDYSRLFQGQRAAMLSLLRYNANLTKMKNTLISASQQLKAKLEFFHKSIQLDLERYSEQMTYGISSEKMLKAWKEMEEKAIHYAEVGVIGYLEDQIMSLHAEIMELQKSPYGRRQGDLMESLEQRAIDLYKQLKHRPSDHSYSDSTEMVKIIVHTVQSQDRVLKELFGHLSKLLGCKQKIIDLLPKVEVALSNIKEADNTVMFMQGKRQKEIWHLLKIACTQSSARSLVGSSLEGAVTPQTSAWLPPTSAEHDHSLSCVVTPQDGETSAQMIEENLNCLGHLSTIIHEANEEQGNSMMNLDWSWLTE

Turning to `CCCCCCCCCCC[N+](C)(C)CC/C=C1/c2ccccc2Sc2ccc(Cl)cc21`, the concentration at half-maximal activity (AC50) in test [1] was 6.5 µM (active). Further, the EC50 in test [2] was > 150 µM (inconclusive).
As to `CCn1c(-c2nonc2N)nc2cncc(C(=O)N3CCC(N)C3)c21` (stereo not given), the values for the Ki in [3], in [4] and in test [5] were > 3.98 µM (inactive), 0.631 µM (active) and > 2.51 µM (inactive), respectively.
In the case of `Cc1[nH]nc2ccc(-c3cncc(OCC(N)Cc4c[nH]c5ccccc45)c3)cc12` (stereo not given), the Ki in [6] was 0.316 µM (active); in test [7], 1.58 µM (active); in test [8], 0.501 µM (active); in test [9], > 7.94 µM (inactive); in [10], 1.58 µM (active); in [11], > 1.58 µM (inactive). The Ki in [12] is 1.58 µM (active); in test [13] it was > 1.58 µM (inactive); in test [14], 0.0501 µM (active); in [15], > 1.58 µM (inactive); in [16], > 0.631 µM (inactive); in test [17], 0.0316 µM (active). Also, the Ki in test [18] was > 3.98 µM (inactive); in test [19], > 7.94 µM (inactive); in test [20], 0.00631 µM (active); in test [21], 0.501 µM (active); in test [22], > 1.58 µM (inactive); in [23], > 2.51 µM (inactive). For the same compound, the Ki in test [24] is 0.794 µM (active); in [25] it was > 6.31 µM (inactive); in [26], 0.02 µM (active); in test [27], 0.01 µM (active); in [28], > 7.94 µM (inactive); in test [29] it was 0.794 µM (active). Besides, the Ki in test [30] was 0.0794 µM (active); in [31] it was 0.251 µM (active).
Take `COC(=O)c1ccccc1NC1=C/C(=N\S(=O)(=O)c2cccs2)c2ccccc2C1=O`: the results for the concentration for a half-maximal effect (EC50) in [32] and in test [33] were > 120 µM (not active) and 1.89 µM (active), respectively. Besides, in test [34], the IC50 is 0.98 µM (active).
With `Cc1cc(C)c[n+](C2=C([N-]S(=O)(=O)c3cccs3)C(=O)c3ccccc3C2=O)c1`, in test [35], the concentration for half-maximal inhibition (IC50) is > 50 µM (not active).
